The values below come from patent US20240238299A1, “USE OF PYRROLOPYRIMIDINE COMPOUND” (GUANGZHOU JOYO PHARMATECH CO., LTD, priority 2021, published 2024).

For assay [1], the system named is STAT3 phosphorylation (p-STAT3/STAT3) in spinal cord. In words: EAE mouse model, STAT3 phosphorylation in spinal cord (Western blot). The assay is classed as in vivo, C57BL/6 mice. As to conditions: for inhibition rate of STAT3 phosphorylation in spinal cord: day 28. Background: Immunoblotting shows a protein as a band on a membrane.
The subject of assay [2] is IL-6-induced pSTAT1 in hPBMC. In words: IL-6-induced pSTAT1 in hPBMC (flow cytometry, CD4 positive cells). It is filed as cell-based. As to conditions: Homo sapiens, 10 ng/mL IL-6, CD4 positive cells. As to the method: • 1) Preparation of culture medium: 1640 medium+10% fetal bovine serum+1% penicillin/streptomycin+1% non-essential amino acids (all percentages were v/v) • 2) Cells were thawed in a 37° C. water bath and then centrifuged. The cell concentration was adjusted to 5×10^5 cells/mL using the prepared culture medium. • 3) Cell suspension was seeded into a 96-well round-bottom plate at 200 μL/well and incubated at 37° C. for 90 minutes. • 4) Drugs were added, followed by a 37° C. incubation for 30 minutes. • 5) Cells were then stimulated by adding 10 ng/mL of IL-6 or 4 ng/mL of IL-2, followed by a 37° C. incubation for 15 minutes.
• 1) After completing the stimulation, cells were centrifuged and washed once with staining buffer (DPBS+2% bovine serum albumin). Antibodies were then added for a 30-minute staining process at 4° C. […]
• 1) Response %=[(MFI value of drug-treated well−mean MFI value of control well)/(mean MFI value of DMSO well−mean MFI value of control well)]*100% was calculated. • 2) The calculated Response % values were input into GraphPad Prism 8 software. […]
(In general: In flow cytometry, cells or beads pass a laser one at a time.)

For another assay, the system named is BV-2 cells. Description: CTG cell proliferation assay, LPS/IFN-γ-activated BV-2 cells. The assay is classed as cell-based, Mouse. As to the method:
Step 1: BV-2 cells in the exponential growth phase were collected, and viable cells were counted using a Vi-Cell XR cell counter. The cell suspension was adjusted to an appropriate concentration with the culture medium. 160 μL of cell suspension was added to each well of a 96-well cell culture plate, resulting in a final cell concentration of 12,000 cells per well. The culture plate was incubated for 24 hours in a 37° C., 5% CO2 incubator.
Step 2: A 10 mM DMSO compound stock solution was diluted at a ratio of 1:4 using DMSO to prepare a series of 1000× test compound solutions. These 1000× test compound solutions were further diluted at a ratio of 1:100 using cell culture medium to prepare a series of 10× test compound solutions. Finally, the 96-well plate that had been plated with cells the day before was taken out. According to the experimental well plate loading design, 20 μL of the corresponding 10× solution was added to each well, with three duplicate wells for each drug concentration. The final concentrations of the test compounds used in the experiment (i.e., 1× solutions) have a range of 10, 2.5, 0.625, 0.156, 0.0391, 0.0098, and 0.0024 μM. The final DMSO concentration in each well was 0.1%.
After the compound was added, the 96-well plate was incubated for half an hour in the 37° C., 5% CO2 incubator.
After the pre-incubation was completed, 20 μL of culture medium containing 100 ng/mL LPS and 100 ng/mL IFN-γ (final concentrations of 10 ng/mL LPS and 10 ng/mL IFN-7) was added to each well to induce the activation of BV-2 cells. The culture plate was then incubated for 24 hours in the 37° C., 5% CO2 incubator.
Step 3: After 24 hours of treatment with the compound, the culture plate was centrifuged at 1200 rpm for 5 minutes. The supernatant was pipetted into another plate, which was sealed with tinfoil and stored at −20° C. for future ELISA and Griess reagent system assays. The cell culture plate from which the supernatant had been removed was immediately used for cell proliferation assays using the CellTiter-Glo (CTG) method.
Step 4: In the cell culture plate from which the supernatant had been removed, 100 μL of PBS was added to each well. According to the instructions of the CellTiter-Glo (CTG) kit, 50 μL of pre-melted and room-temperature balanced CTG solution was added to each well. The plate was then mixed for 2 minutes using a microplate shaker. After letting it stand at room temperature for 10 minutes, the fluorescence signal value was measured using an Envision 2104 plate reader.
Step 1: Using the CTG fluorescence signal values, the percentage of surviving cells (surviving cells %) at each test concentration relative to the blank (DMSO) group was calculated. The formula was: surviving cells %=fluorescence value of the test concentration group/fluorescence value of the blank group.
Step 2: the percentage of surviving cells was plotted against the logarithm of the compound concentration. Nonlinear regression was used to fit the curve, and the formula “log(inhibitor) vs. response—Variable slope” in the software GraphPad Prism 5 was employed to calculate the IC50 value.
Step 3: The formula for calculating the inhibition rate was: inh. (%)={fluorescence value of the blank group−fluorescence value of the test concentration group}/fluorescence value of the blank (DMSO) group.

For a further assay, the system named is rat primary astrocytes. Description: Cell viability (CCK-8) in NMO-IgG induced astrocyte injury model. The assay is classed as cell-based.
Setting [3] is: Rattus norvegicus, Astrocyte, 24 h, read-out: Cell viability percentage, Mean.

Structures are written as SMILES. pIC50: −log10 of the molar value.

As for `CN(c1ncnc2[nH]ccc12)[C@@H]1CCc2cc(C#N)nn2C1` [Compound I], the “inhibition rate of STAT3 phosphorylation in spinal cord” value in assay [1] (10 mg/kg BID) stood at 86%. Also, the “inhibition rate of STAT3 phosphorylation in spinal cord” value in assay [1] (20 mg/kg BID) is reported as 86%. For the same compound, the “STAT3 phosphorylation in spinal cord” value in assay [1] (all dose groups, day 28, 0.25 h after administration) is listed as “significantly inhibited the level of STAT3 phosphorylation in spinal cord”. Moreover, the pIC50 (as a rule, the negative decadic logarithm of the IC50, by convention in mol/L) in assay [2] is 7.14. In addition, the “inhibitory effect on cell proliferation” value with BV-2 cells (24 h co-incubation with BV-2, highest test concentration 10 μM) was “no inhibitory effect on cell proliferation”. The “maximum rate of increase in cell numbers compared to blank (DMSO) well” value in the assay with BV-2 cells (BV-2, 24 h, concentration greater than 0.1 μM) was 46.39%. For the same compound, the inhibition at up to 10 µM in the assay on BV-2 cells (Mus musculus, BV-2, 24 h co-incubation, LPS/IFN-γ, highest concentration 10 μM, read-out: Maximum inhibition rate on BV-2 cell proliferation) was -46.4%. Also, the “inhibitory effect on cell viability” value in the assay with rat primary astrocytes (24 h co-incubation, highest test concentration 20 μM) is reported as “no inhibitory effect on cell viability”. In addition, in the assay on rat primary astrocytes (setting [3]), the viability (in general, a read-out of living cells in per cent, often relative to untreated cells) at 0.027 µM was found to be 112%; the viability at 0.247 µM was determined as 105%; the viability at 2.222 µM was 99.7%; the viability at 20 µM is 99.4%.
